Among the test systems are 786-0; COLO 205; HCC 2998; HOP-92; HT-29; LXFL 529; NCI-H460; OVCAR-5; OVCAR-8; RXF 393; SNB-19; SW-620; TK-10; U-251; NCI-H226; BT-549; DU-145; Hs-578T; MDA-MB-231; MDA-MB-435.
What all share (experiment): NCI-60 cell line screen, 48 h

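Assay format: 96-well plates, 48-hour exposure. Here, GI50 denotes the concentration required for 50% inhibition of growth.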 Activity calls are given as the source filed them. Rule as the data show it: active = GI50 up to about 1.1 µM and inactive = higher.

Regarding `Nc1ccccc1N`, the GI50 in the test on 786-0, in the test on COLO 205, in the test on HCC 2998, in the test with HOP-92, in the test with HT-29 and with LXFL 529 was > 100 µM (inactive) each time. Besides, the GI50 with NCI-H460, with OVCAR-5, in the test with OVCAR-8, with RXF 393, with SNB-19 and with SW-620 was > 100 µM (inactive) throughout. For the same compound, the GI50 in the test on TK-10 and in the test with U-251 was > 100 µM (inactive) each time.
Take `CCN(CC)CC(C(C)=O)C(c1ccccc1)c1c(O)c2ccccc2oc1=O` (stereo unspecified): the GI50 with 786-0, in the test with COLO 205, in the test on HCC 2998, in the test on HT-29, in the test on LXFL 529 and in the test with NCI-H226 was > 100 µM (inactive) throughout. The GI50 with NCI-H460, in the test with OVCAR-5, in the test on OVCAR-8, with RXF 393, with SNB-19 and in the test on SW-620 was > 100 µM (inactive) throughout. Further, the GI50 in the test with TK-10 and in the test with U-251 was > 100 µM (inactive) throughout.
As for `O=C1OC(/C=C/c2ccccc2)C(=O)C1=O` (stereo unspecified), the GI50 with 786-0, in the test on COLO 205, in the test on HCC 2998, in the test with HOP-92, in the test on HT-29 and in the test with LXFL 529 was > 100 µM (inactive) each time. In addition, the GI50 with NCI-H226, in the test with NCI-H460, in the test on OVCAR-5, in the test with RXF 393, with SNB-19 and in the test on SW-620 was > 100 µM (inactive) in each case. The GI50 with TK-10 and in the test on U-251 was > 100 µM (inactive) each time.
With `CC1(C)CCC(Sc2ccccc2)O1` (stereo unspecified), the GI50 in the test on 786-0, in the test on COLO 205, with HCC 2998, in the test with HOP-92, in the test on LXFL 529 and in the test with NCI-H460 was > 100 µM (inactive) in each case. Besides, the GI50 in the test with OVCAR-8, with RXF 393, in the test with SNB-19, with SW-620, in the test with TK-10 and in the test on U-251 was > 100 µM (inactive) throughout.
In the case of `CCn1cc(/C=C/C(C)c2cn(CC)c(=O)[nH]c2=O)c(=O)[nH]c1=O` (stereo unspecified), the GI50 in the test on 786-0 is > 100 µM (inactive); with COLO 205, > 100 µM (inactive); in the test with HCC 2998 it was > 100 µM (inactive); with HOP-92, 11.3 µM (inactive); in the test on HT-29, > 100 µM (inactive); in the test on LXFL 529, > 100 µM (inactive). For the same compound, the GI50 in the test on NCI-H460, with OVCAR-5, in the test on OVCAR-8, with RXF 393, with SNB-19 and with SW-620 was > 100 µM (inactive) throughout. The GI50 in the test with TK-10 and in the test with U-251 was > 100 µM (inactive) each time.
With `N#CC12CC3(CCC1CCC1(C2)OCCO1)OCCO3` (stereo unspecified), the GI50 in the test on 786-0, in the test on COLO 205, in the test with HCC 2998, in the test on HOP-92, in the test with LXFL 529 and with NCI-H226 was > 100 µM (inactive) throughout. For the same compound, the GI50 in the test on NCI-H460, in the test on OVCAR-5, in the test with OVCAR-8, with RXF 393, in the test with SNB-19 and in the test with SW-620 was > 100 µM (inactive) throughout. Also, the GI50 with TK-10 and with U-251 was > 100 µM (inactive) in each case.
Take `C=CCN(N=O)C(=O)ON1C(=O)CCC1=O`: the GI50 with 786-0, with COLO 205, in the test with HCC 2998, in the test with HOP-92, in the test on HT-29 and with LXFL 529 was > 100 µM (inactive) throughout. Also, the GI50 in the test with NCI-H460 is > 100 µM (inactive); in the test on OVCAR-5 it was 0.0681 µM (active); with OVCAR-8, > 100 µM (inactive); in the test on RXF 393 it was > 100 µM (inactive); with SNB-19, > 100 µM (inactive); with SW-620, > 100 µM (inactive). In addition, the GI50 in the test on TK-10 was > 100 µM (inactive); with U-251, 17.7 µM (inactive).
Turning to `C/C=C1/C=CC2c3[nH]c4ccccc4c3CCN2C1` (stereo unspecified), the GI50 with 786-0 was > 400 µM (inactive); in the test with COLO 205, > 400 µM (inactive); in the test with HCC 2998, > 400 µM (inactive); in the test with HOP-92, 199 µM (inactive); in the test on HT-29, > 400 µM (inactive); in the test on LXFL 529, > 400 µM (inactive). The GI50 is 358 µM (inactive) with NCI-H226; > 400 µM (inactive) in the test on NCI-H460; > 400 µM (inactive) in the test with OVCAR-8; > 400 µM (inactive) in the test with RXF 393; 187 µM (inactive) in the test with SNB-19; > 400 µM (inactive) in the test on SW-620. Also, the GI50 in the test with TK-10 and with U-251 was > 400 µM (inactive) throughout.
For `NC(=O)Nc1c([N+](=O)[O-])cc(C(F)(F)F)cc1[N+](=O)[O-]`, the GI50 in the test on 786-0 is > 100 µM (inactive); in the test with COLO 205 it was 34.5 µM (inactive); with HOP-92, 40.5 µM (inactive); in the test with HT-29, 33.7 µM (inactive); in the test with LXFL 529 it was > 100 µM (inactive); in the test on NCI-H226 it was > 100 µM (inactive). For the same compound, the GI50 with NCI-H460 was 48.1 µM (inactive); with OVCAR-5 it was > 100 µM (inactive); in the test on OVCAR-8, 57.5 µM (inactive); in the test with RXF 393 it was > 100 µM (inactive); with SNB-19, > 100 µM (inactive); with SW-620, 51.2 µM (inactive). The GI50 with TK-10 and in the test with U-251 was > 100 µM (inactive) in each case.
Turning to `Cn1nc(-c2ccccc2)c2c(/C=C/c3ccc(F)cc3)onc2c1=O`, the GI50 with 786-0 was 11.1 µM (inactive); with COLO 205, > 100 µM (inactive); in the test on HOP-92 it was 2.72 µM (inactive); in the test on HT-29, 29.3 µM (inactive); in the test with LXFL 529, > 100 µM (inactive); in the test with NCI-H460 it was > 100 µM (inactive). The GI50 with OVCAR-8 was 38.1 µM (inactive); in the test on RXF 393, 23.3 µM (inactive); with SW-620, > 100 µM (inactive); in the test on TK-10, 90.6 µM (inactive); in the test on U-251, 64 µM (inactive).
For `COC(=O)C1=C(O)C(C(=O)OC)[C@]2(O)[C@H](C(=O)OC)[C@H]1C[C@@H](c1ccc(Cl)cc1)[C@H]2C(=O)OC` (stereo partly specified), the GI50 in the test on 786-0 was 6.41 µM (inactive); in the test on BT-549, 6.12 µM (inactive); in the test with COLO 205, 10 µM (inactive); in the test with DU-145, 7.11 µM (inactive); in the test on HCC 2998, 6.79 µM (inactive); in the test with HOP-92, 19.3 µM (inactive). For the same compound, the GI50 in the test on HT-29 was 12 µM (inactive); in the test on Hs-578T it was 3.89 µM (inactive); with MDA-MB-231 it was 16.5 µM (inactive); in the test on MDA-MB-435, 3.67 µM (inactive); with NCI-H226, 8.18 µM (inactive); in the test on NCI-H460, 5.45 µM (inactive). For the same compound, the GI50 in the test on OVCAR-5 was 14.5 µM (inactive); in the test on OVCAR-8, 5.89 µM (inactive); in the test on RXF 393, 4.62 µM (inactive); in the test on SNB-19 it was 5.5 µM (inactive); in the test on SW-620, 7.29 µM (inactive); with TK-10 it was 13 µM (inactive). For the same compound, in the test with U-251, the GI50 is 6.05 µM (inactive).
`O=C(NCCOCCO)c1ccc(O)cc1`: the GI50 in the test with 786-0, with COLO 205, with HOP-92, in the test on LXFL 529, in the test with NCI-H460 and with OVCAR-8 was > 100 µM (inactive) throughout. In addition, the GI50 in the test with RXF 393, with SW-620, in the test on TK-10 and in the test with U-251 was > 100 µM (inactive) each time.
`O=C1CCCC2=C1CC1=C(CCCC1=O)N2c1ccc(-c2ccccc2)cc1`: the GI50 is > 69.7 µM (inactive) in the test with 786-0; > 40 µM (inactive) in the test on BT-549; > 100 µM (inactive) in the test on COLO 205; > 100 µM (inactive) in the test with DU-145; > 100 µM (inactive) with HCC 2998; > 75.3 µM (inactive) with HOP-92. The GI50 with HT-29 is > 100 µM (inactive); in the test on Hs-578T, 43.2 µM (inactive); with MDA-MB-231 it was > 100 µM (inactive); with MDA-MB-435, > 100 µM (inactive); in the test with NCI-H226 it was > 100 µM (inactive); with NCI-H460 it was > 100 µM (inactive). Also, the GI50 with OVCAR-5 was > 100 µM (inactive); with OVCAR-8, > 100 µM (inactive); with RXF 393, > 24.6 µM (inactive); with SNB-19, > 63.2 µM (inactive); with SW-620, > 100 µM (inactive); in the test with TK-10 it was > 75 µM (inactive). Also, in the test with U-251, the GI50 was > 75 µM (inactive).
On to `COc1ccc(C2CCc3cc4c(cc3/C2=N/OC(C)=O)OCO4)cc1OC` (stereo unspecified), for which the GI50 is 32.5 µM (inactive) with 786-0; 22.5 µM (inactive) in the test with COLO 205; 23.1 µM (inactive) with HOP-92; 36.2 µM (inactive) with HT-29; 26.4 µM (inactive) in the test on LXFL 529; 12.6 µM (inactive) in the test on NCI-H226. The GI50 in the test on OVCAR-5 is 32.9 µM (inactive); in the test on OVCAR-8 it was 34.4 µM (inactive); in the test with RXF 393, 14 µM (inactive); in the test with SNB-19 it was 39.3 µM (inactive); in the test on SW-620, 27.4 µM (inactive); with TK-10, 39 µM (inactive). Further, the GI50 with U-251 is 23.8 µM (inactive).
